Measured values reported in patent publication US7927613B2, “Pharmaceutical co-crystal compositions” (University of South Florida, priority 2002, dated 2011).

Assays:
[1] = Dissolution profile; assay type: physicochemical; conditions: vs. itraconazole free base (FIG. 28)
Text: In another aspect of the present invention, the dissolution profile of the API is modulated whereby the aqueous dissolution rate or the dissolution rate in simulated gastric fluid or in simulated intestinal fluid, or in a solvent or plurality of solvents is increased. Dissolution rate is the rate at which API solids dissolve in a dissolution medium. For APIs whose absorption rates are faster than the dissolution rates (e.g., steroids), the rate-limiting step in the absorption process is often the dissolution rate. Because of a limited residence time at the absorption site, APIs that are not dissolved before they are removed from intestinal absorption site are considered useless. Therefore, the rate of dissolution has a major impact on the performance of APIs that are poorly soluble. Because of this factor, the dissolution rate of APIs in solid dosage forms is an important, routine, quality control parameter used in the API manufacturing process. […] For rapid API absorption, Cs−C is approximately equal to Cs The dissolution rate of APIs may be measured by conventional means known in the art. […] Conditions under which the dissolution rate is measured is the same as discussed above The increase in dissolution may be further specified by the time the composition remains supersaturated before reaching equilibrium solubility.

Molecule: CCOc1ccc(NC(N)=O)cc1 [4-ethoxyphenyl urea]
- melting point: 173 to 174 °C

Molecule: itraconazole and malic acid [itraconazole:malic acid]
- dissolution profile [1]: modulated dissolution profile
